# According to US7943795B2, “Vitamin D receptor modulators” (Eli Lilly and Company, priority 2004, dated 2011):
# Tested on: IL-10 production in PBMCs
# Assay: IL-10 induction assay
# Assay type: cell-based
# Conditions: PBMC; TPA/PHA stimulated human PBMCs, IL-10 in supernatant by immunoassay
# Description: 7. The IL-10 induction assay is described in the “Assay” section of the Description, infra.
# The IL-10 Induction Assay
# This is an in vitro efficacy assay for psoriasis, abscess and adhesion. Psoriasis involves both keratinocytes and immune cells. IL-10 is a unique cytokine because it is anti-inflammatory and immunosuppressive. This assay tells us whether a VDRM is able to function as an agonist in PBMCs (primary blood mononuclear cells) or not. A lower EC50 value is desirable in this assay since a compound with a lower EC50 value will be a better agonist in PBMCs. An acceptable test result is an EC50 value of less than 200 nM. Preferred assay results are EC50 values of less than 100 nM.
# Isolation of Peripheral Blood Mononuclear Cells (PBMCs):
# Collect 50 ml of human blood and dilute with media, RPMI-1640. Add diluted blood to sterile tubes with ficol. Centrifuge the tubes. Discard the top layer and collect the cells from middle layer. Divide all cells into four tubes and add media. Centrifuge. Aspirate off media and resuspend the cells. Collect all cells. Centrifuge at 1200 rpm for 10 m. Resuspend the cells in RPMI-1640 with 2% FBS and then count cells.
# Stimulation of PBMC: Prepare TPA in DMSO. Dissolve PHA in water. Plate TPA/PHA treated PBMCs in well plates. Incubate the cells.
# Treatment: Prepare all compound dilutions in plain RPMI-1640 media. Add diluted compound and incubate. Sample Collection and assay: Remove all the cells by centrifugation and assay the supernatant for IL-10 by immunoassay using anti-human IL-10 antibody coated beads, as described by the manufacturer (Linco Research Inc., St. Charles, Mo.).
row,Structure (SMILES),IC50 [nM]
1,"CCC(CC)(c1ccc(OCC(=O)C(C)(C)C)c(C)c1)c1ccc2cc(C(=O)O)ccc2c1 [Ex. 1, 6-{1-[4-(3,3-dimethyl-2-oxobutoxy)-3-methylphenyl]-1-ethylpropyl}naphthalene-2-carboxylic acid]",76
2,"CCC(CC)(c1ccc(OCC(=O)C(C)(C)C)c(C)c1)c1ccc2cc(C(=O)N(C)CC(=O)O)ccc2c1 [Ex. 5, [(6-{1-[4-(3,3-Dimethyl-2-oxobutoxy)-3-methylphenyl]-1-ethylpropyl}naphthalene-2-carbonyl)methylamino]acetic acid]",5
